Laboratory results reported in patent US20040044026A1, “3-Substituted quinuclidines and their use as nicotinic agonists” (priority 2000, published 2004).
Where a name gives a salt, the structure may show the parent alone. Read-outs that look alike come from different tables or passages of the source.

What was measured:
[1] = target: nicotinic receptors (non-selective); test: in vitro inhibition of 3H-epibatidin binding; settings: radioligand 3H-epibatidin
Text: the in vitro inhibition of ^3H-epibatidin binding, which is a standard assay for determining non-selective binding to nicotinic receptors,
(§1) Such standard assays are described in e.g. WO 99/21834.
(§2) In this example the affinity of compounds of the invention for nicotinic acetylcholine receptors are investigated using standard assays described in WO 99/21834.
First the in vitro inhibition of ^3H-epibatidin binding, which is a standard assay for determining non-selective binding to nicotinic receptors, was determined.

[2] = target: α4β2-subtype of nicotinic receptors (Rattus norvegicus, UniProt P09483+P12390); test: in vitro inhibition of 3H-cytisine binding
Text: the in vitro inhibition ^3H-cytisine binding, which is a standard assay for determining selective binding to α4β2 subtype of nicotinic receptors, and/or
as §1, §2
Next the in vitro inhibition ^3H-cytisine binding, which is a standard assay for determining selective binding to α4β2-subtype of nicotinic receptors, was determined.

[3] = target: α7-subtype of nicotinic receptors (Rattus norvegicus, UniProt Q05941); test: biochemical; format: binding
α7-subtype of nicotinic receptors, sequence (Q05941 23-502): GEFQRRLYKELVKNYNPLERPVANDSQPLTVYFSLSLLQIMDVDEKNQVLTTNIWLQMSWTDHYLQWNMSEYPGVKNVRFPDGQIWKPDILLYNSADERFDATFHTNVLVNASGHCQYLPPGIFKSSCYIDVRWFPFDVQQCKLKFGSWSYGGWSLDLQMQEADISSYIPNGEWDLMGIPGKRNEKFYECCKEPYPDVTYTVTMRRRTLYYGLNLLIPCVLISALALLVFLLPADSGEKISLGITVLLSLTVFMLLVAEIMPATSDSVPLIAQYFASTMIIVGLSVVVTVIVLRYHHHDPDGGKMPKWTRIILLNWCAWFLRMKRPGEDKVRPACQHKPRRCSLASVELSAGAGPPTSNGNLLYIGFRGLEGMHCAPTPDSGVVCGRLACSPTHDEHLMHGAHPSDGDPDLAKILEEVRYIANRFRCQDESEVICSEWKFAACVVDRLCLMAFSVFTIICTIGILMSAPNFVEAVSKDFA

α4β2-subtype of nicotinic receptors, sequence (P09483 31-630): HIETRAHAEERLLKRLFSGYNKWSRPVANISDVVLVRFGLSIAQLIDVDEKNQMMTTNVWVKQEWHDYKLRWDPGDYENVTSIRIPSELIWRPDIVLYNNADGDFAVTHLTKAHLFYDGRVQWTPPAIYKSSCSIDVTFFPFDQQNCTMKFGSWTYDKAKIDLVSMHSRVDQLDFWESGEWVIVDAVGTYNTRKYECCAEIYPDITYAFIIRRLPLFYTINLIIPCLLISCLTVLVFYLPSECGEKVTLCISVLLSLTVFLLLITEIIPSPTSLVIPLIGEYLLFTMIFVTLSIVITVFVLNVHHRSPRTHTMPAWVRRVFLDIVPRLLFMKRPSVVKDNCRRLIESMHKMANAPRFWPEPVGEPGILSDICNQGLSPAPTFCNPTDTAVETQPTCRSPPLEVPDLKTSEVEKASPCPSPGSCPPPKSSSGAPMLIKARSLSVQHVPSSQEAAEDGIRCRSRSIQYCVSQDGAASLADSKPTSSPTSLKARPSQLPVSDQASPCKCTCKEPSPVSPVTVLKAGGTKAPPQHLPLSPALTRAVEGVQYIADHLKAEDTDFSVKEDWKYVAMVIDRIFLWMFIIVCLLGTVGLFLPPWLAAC
α4β2-subtype of nicotinic receptors, sequence (P12390 25-500): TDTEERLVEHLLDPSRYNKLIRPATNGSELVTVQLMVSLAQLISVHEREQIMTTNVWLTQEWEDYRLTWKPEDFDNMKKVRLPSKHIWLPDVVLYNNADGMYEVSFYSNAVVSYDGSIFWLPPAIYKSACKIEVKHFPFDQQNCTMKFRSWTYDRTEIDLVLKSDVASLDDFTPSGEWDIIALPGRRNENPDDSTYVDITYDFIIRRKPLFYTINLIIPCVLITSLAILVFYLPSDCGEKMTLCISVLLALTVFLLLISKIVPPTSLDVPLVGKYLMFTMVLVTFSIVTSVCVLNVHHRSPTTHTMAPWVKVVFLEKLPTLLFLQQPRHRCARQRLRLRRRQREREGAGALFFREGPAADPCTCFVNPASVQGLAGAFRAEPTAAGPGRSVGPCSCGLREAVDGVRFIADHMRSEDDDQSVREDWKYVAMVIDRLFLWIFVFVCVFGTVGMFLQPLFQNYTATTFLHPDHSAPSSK

Compound | IC50 [1] | IC50 [2] | IC50 [3] | IC50 ([2]; radioligand 3H-cytisine, read-out: in vitro Inhibition of Binding (IC50) 3H-cytisine binding)
c1ccc2cc(C3CN4CCC3CC4)ccc2c1 (racemic) [Compound C1, (±)-3-(2-Naphthyl)-quinuclidine fumaric acid salt] | 7.5 µM | 6 µM | 0.15 µM | –
C1=C(c2ccc3ccccc3c2)C2CCN1CC2 [Compound B1, 3-(2-Naphthyl)-quinuclidine-3-ene fumaric acid salt] | 17 µM | – | 0.058 µM | 10 µM
